Measurements from ChEMBL document CHEMBL3132769, “Fragment growing to retain or alter the selectivity of anchored kinase hinge-binding fragments” (Medchemcomm, 2014).

What was measured:
[1] = molecular target: Fibroblast growth factor receptor 2 (Homo sapiens) (UniProt P21802); experiment: Inhibition of human FGFR2 catalytic domain expressed in baculovirus assessed as substrate phosphorylation using fluorescence-labelled peptides as substrate at 95 uM after 90 mins by microfluidic peptide phosphorylation assay
Fibroblast growth factor receptor 2 (Homo sapiens), sequence (P21802 22-821 limits assumed): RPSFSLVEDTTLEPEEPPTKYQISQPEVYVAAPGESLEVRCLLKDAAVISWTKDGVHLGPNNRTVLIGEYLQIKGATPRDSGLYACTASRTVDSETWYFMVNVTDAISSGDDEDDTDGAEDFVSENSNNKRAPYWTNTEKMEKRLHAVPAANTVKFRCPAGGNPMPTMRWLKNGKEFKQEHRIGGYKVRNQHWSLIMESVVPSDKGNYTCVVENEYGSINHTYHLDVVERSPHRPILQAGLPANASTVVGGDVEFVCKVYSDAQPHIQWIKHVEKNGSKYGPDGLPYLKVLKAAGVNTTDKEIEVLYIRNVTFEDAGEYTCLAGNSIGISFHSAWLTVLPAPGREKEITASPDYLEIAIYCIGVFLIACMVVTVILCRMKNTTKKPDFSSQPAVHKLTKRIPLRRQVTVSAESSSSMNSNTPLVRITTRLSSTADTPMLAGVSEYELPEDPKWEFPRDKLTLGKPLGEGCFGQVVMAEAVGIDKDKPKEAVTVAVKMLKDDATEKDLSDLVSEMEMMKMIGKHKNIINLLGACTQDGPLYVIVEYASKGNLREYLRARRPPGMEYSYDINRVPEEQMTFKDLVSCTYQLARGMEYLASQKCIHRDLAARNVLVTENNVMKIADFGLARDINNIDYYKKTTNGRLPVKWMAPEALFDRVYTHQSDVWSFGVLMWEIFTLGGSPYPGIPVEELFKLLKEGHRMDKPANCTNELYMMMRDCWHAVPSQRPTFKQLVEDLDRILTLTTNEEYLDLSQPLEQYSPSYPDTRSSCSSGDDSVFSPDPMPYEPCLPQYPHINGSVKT

[2] = molecular target: Calcium/calmodulin-dependent protein kinase type II subunit beta (Homo sapiens) (UniProt Q13554); experiment: Inhibition of human CAMK2 beta catalytic domain expressed in baculovirus assessed as substrate phosphorylation using fluorescence-labelled peptides as substrate at 0.2 uM after 90 mins by microfluidic peptide phosphorylation assay
Calcium/calmodulin-dependent protein kinase type II subunit beta (Homo sapiens), sequence (Q13554 whole entry, the tested form may be a part): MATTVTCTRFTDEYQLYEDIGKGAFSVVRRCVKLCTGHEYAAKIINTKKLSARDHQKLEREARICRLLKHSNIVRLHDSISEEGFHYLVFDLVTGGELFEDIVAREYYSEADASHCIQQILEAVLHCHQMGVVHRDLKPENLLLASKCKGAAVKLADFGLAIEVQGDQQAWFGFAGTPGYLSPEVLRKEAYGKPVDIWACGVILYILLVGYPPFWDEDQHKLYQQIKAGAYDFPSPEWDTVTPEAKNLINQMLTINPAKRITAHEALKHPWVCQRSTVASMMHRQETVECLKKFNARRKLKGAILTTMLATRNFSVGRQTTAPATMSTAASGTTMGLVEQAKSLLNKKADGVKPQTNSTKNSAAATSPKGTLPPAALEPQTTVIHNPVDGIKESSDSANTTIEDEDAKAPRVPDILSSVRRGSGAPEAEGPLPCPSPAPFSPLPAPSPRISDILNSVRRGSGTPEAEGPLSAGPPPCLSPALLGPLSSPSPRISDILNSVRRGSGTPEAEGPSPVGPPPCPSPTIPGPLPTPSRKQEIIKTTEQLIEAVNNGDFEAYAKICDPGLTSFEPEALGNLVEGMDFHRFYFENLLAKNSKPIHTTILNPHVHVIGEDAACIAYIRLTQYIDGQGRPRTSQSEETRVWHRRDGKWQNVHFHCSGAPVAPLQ

[3] = molecular target: T1, cGMP-dependent protein kinase 1 (Homo sapiens) (UniProt Q13976); experiment: Inhibition of human full length PKG-1beta expressed in baculovirus assessed as substrate phosphorylation using fluorescence-labelled peptides as substrate at 8 uM after 90 mins by microfluidic peptide phosphorylation assay
T1 sequence (whole entry): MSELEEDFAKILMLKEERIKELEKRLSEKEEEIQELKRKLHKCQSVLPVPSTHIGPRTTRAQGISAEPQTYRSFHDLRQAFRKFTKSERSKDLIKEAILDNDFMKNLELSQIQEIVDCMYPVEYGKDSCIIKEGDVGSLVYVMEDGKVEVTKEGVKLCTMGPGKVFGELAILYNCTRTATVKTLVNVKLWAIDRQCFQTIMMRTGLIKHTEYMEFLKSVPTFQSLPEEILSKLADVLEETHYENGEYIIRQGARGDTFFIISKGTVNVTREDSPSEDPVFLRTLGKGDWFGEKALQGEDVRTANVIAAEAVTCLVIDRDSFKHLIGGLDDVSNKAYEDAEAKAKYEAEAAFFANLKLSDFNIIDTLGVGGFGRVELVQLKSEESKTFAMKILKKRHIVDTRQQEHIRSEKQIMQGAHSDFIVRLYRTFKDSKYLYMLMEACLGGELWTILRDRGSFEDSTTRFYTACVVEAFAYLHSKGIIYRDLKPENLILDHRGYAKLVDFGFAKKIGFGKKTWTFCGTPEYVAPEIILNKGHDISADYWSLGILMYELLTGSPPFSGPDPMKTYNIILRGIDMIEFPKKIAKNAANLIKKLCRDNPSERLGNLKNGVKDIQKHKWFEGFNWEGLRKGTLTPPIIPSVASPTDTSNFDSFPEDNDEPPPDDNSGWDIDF

[4] = molecular target: Insulin receptor (Homo sapiens) (UniProt P06213); experiment: Inhibition of human INSR catalytic domain expressed in baculovirus assessed as substrate phosphorylation using fluorescence-labelled peptides as substrate at 8 uM after 90 mins by microfluidic peptide phosphorylation assay
[5] = molecular target: Serine/threonine-protein kinase Chk2 (Homo sapiens) (UniProt O96017); experiment: Inhibition of human full length CHK2 expressed in baculovirus assessed as substrate phosphorylation using fluorescence-labelled peptides as substrate at 2 uM after 90 mins by microfluidic peptide phosphorylation assay
Serine/threonine-protein kinase Chk2 (Homo sapiens), sequence (O96017 whole entry): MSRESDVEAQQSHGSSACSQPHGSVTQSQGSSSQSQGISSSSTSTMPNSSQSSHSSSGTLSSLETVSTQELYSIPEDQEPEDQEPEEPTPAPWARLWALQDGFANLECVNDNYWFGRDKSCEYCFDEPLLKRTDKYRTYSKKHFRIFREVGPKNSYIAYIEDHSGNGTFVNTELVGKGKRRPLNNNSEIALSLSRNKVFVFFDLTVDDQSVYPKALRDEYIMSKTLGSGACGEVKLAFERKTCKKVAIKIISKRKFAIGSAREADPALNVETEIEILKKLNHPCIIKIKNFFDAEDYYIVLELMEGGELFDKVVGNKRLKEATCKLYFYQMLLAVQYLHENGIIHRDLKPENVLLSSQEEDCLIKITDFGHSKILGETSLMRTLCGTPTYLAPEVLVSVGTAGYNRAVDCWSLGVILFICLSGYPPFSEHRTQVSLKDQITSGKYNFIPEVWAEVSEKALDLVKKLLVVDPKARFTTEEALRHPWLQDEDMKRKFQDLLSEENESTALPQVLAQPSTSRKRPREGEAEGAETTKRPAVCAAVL

[6] = molecular target: T2, Serine/threonine-protein kinase 3 (Homo sapiens) (UniProt Q13188); experiment: Inhibition of human full length MST2 expressed in baculovirus assessed as substrate phosphorylation using fluorescence-labelled peptides as substrate at 1000 uM after 90 mins by microfluidic peptide phosphorylation assay
T2 sequence (whole entry): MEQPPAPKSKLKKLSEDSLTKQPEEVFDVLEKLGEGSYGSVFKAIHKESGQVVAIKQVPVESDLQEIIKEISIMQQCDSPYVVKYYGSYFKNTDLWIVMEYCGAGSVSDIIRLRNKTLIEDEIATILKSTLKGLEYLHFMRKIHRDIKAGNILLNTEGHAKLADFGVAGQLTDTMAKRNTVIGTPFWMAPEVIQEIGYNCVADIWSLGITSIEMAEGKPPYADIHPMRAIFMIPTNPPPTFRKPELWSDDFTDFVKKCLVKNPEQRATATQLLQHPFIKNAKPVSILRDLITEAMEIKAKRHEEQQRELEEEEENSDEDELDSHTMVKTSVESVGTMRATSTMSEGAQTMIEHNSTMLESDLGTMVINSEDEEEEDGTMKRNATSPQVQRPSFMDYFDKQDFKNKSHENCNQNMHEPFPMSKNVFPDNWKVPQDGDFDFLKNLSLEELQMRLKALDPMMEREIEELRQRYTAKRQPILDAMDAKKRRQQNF

[7] = molecular target: T1, cGMP-dependent protein kinase 1 (Homo sapiens); experiment: Inhibition of human full length PKG-1a expressed in baculovirus assessed as substrate phosphorylation using fluorescence-labelled peptides as substrate at 0.06 uM after 90 mins by microfluidic peptide phosphorylation assay
[8] = molecular target: Serine/threonine-protein kinase MARK2 (Homo sapiens) (UniProt Q7KZI7); experiment: Inhibition of human full length MARK2 expressed in baculovirus assessed as substrate phosphorylation using fluorescence-labelled peptides as substrate at 0.1 uM after 90 mins by microfluidic peptide phosphorylation assay
Serine/threonine-protein kinase MARK2 (Homo sapiens), sequence (Q7KZI7 whole entry): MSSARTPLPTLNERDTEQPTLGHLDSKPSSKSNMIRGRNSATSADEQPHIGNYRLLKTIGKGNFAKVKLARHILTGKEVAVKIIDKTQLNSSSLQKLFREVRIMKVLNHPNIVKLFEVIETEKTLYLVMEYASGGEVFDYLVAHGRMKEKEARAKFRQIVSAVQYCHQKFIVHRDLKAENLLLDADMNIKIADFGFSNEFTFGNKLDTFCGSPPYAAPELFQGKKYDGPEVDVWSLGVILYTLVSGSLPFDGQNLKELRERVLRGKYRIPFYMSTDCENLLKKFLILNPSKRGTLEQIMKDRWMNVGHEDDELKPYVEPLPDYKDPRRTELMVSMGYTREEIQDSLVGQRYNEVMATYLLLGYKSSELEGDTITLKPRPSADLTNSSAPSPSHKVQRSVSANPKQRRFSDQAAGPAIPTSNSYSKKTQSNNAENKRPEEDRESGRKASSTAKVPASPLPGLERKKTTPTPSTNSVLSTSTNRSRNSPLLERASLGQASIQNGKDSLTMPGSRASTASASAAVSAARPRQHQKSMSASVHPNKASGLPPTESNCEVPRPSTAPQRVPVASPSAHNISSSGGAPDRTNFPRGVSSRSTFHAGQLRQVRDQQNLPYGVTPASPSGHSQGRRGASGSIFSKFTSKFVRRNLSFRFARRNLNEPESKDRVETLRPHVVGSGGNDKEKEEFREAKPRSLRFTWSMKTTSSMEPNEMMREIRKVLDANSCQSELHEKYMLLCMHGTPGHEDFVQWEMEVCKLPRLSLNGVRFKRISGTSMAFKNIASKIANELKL

[9] = molecular target: T3, Serine/threonine-protein kinase Nek2 (Homo sapiens) (UniProt P51955); experiment: Inhibition of human full length NEK2 expressed in baculovirus assessed as substrate phosphorylation using fluorescence-labelled peptides as substrate at […] after 90 mins by microfluidic peptide phosphorylation assay
T3 sequence (whole entry): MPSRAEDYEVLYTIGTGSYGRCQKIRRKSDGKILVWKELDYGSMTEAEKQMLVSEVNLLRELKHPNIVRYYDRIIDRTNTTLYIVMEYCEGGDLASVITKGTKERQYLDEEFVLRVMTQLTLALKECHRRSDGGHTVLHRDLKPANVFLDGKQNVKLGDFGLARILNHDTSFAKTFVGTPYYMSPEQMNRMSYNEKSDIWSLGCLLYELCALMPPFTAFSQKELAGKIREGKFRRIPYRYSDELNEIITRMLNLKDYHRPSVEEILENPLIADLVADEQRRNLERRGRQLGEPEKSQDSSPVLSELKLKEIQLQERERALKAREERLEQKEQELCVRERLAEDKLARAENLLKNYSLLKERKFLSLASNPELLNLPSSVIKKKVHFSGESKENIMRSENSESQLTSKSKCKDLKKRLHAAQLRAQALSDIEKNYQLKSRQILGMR

[10] = molecular target: Insulin receptor (Homo sapiens) (UniProt P06213); experiment: Inhibition of human INSR catalytic domain expressed in baculovirus assessed as substrate phosphorylation using fluorescence-labelled peptides as substrate at 420 uM after 90 mins by microfluidic peptide phosphorylation assay
[11] = molecular target: T4, Testis-specific serine/threonine-protein kinase 2 (Homo sapiens) (UniProt Q96PF2); experiment: Inhibition of human full length TSSK2 expressed in baculovirus assessed as substrate phosphorylation using fluorescence-labelled peptides as substrate at 70 uM after 90 mins by microfluidic peptide phosphorylation assay
T4 sequence (whole entry): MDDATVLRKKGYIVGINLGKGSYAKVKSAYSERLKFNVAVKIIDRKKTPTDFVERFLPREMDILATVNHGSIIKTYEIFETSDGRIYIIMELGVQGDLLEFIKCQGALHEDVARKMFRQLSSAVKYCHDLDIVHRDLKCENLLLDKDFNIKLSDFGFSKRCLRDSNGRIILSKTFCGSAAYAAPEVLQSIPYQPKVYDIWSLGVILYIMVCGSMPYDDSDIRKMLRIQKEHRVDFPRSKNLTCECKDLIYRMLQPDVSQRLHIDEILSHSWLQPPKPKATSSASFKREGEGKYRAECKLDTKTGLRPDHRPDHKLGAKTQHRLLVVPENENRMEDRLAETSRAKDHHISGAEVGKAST

NCCc1ccc(-c2ncnc3[nH]cnc23)cc1
inhibition [1]: 36%

Clc1ccc(C2(c3ccc(-c4ncnc5[nH]cnc45)cc3)CCNCC2)cc1
inhibition [2]: 11.5%

NCC1CCN(c2ncnc3[nH]ccc23)CC1
inhibition [3]: 76.5% | inhibition [4]: 16.5%

NC1CCN(c2ncnc3[nH]ccc23)CC1
inhibition [5]: 0%

c1cnc2[nH]ccc2c1
inhibition [6]: 63%

NC1(Cc2ccc(Cl)cc2)CCN(c2ncnc3[nH]ccc23)CC1
inhibition [7]: 0%

C[C@H](CN(C)C)Oc1nc(Nc2cc3cccc(Cl)c3cn2)cnc1C#N
inhibition [8]: 2%

COC(=O)c1cnc(Nc2cnc(C#N)cn2)cc1NCC1CCNCC1
inhibition [9]: 0.5%

c1nc(N2CCOCC2)c2nc[nH]c2n1
inhibition [10]: 8%

CNCc1ccc(-c2ncnc3[nH]cnc23)cc1
inhibition [11]: 10%
